Laboratory results: patent EP1016409B1, “FREEZE DRIED COMPOSITION COMPRISING GLYCOSPHINGOLIPIDS” (KIRIN BEER KABUSHIKI KAISHA, priority 1997, dated 1998)

Tests used:
Type in all cases: physicochemical
[1] = Selection of a solvent for the active component: solubility judged by naked eye
Method: First, […] of the active component (KRN7000) was weighed and stirred in 100 ml of a variety of solvents (Table 3) in a heated bath to 80°C for 20 minutes in order to form a solution having a concentration of 10 µg/ml. With respect to the solvents which were judged to have successfully dissolved 10 µg/ml of the active component, dissolution was further tried in the same manner as above in order to form a solution having a concentration of 100 µg/ml. With respect to the solvents which were judged to have successfully dissolved 100 µg/ml of the active component, dissolution was further tried in the same manner as above in order to form a solution having a concentration of 200 µg/ml. After cooling with running water, the solubility of the component was judged.
The solubility of the component was judged by the test described below. First, transparent colorless glass vials having a volume of 5 ml were charged with about 1.5 ml portion of each sample and sealed up. The vial was cleaned outside and placed beneath the white light source in a darkroom for observation with naked eye at the position of a luminous intensity of about 5,000 lux. When the sample was clear with no precipitates, it was judged that the active component was dissolved.

[2] = Excipient appropriate to lyophilization 2: re-solubility after storage; conditions: lyophilized, KRN7000 200 µg/ml, Polysorbate 20 0.5%, 25°C
Method: The lyophilized preparations having mannitol and sucrose added thereto were observed on their variation with the passage of time.
First, Polysorbate 20 was dissolved in distilled water in a concentration of 0.5%, and the saccharides were dissolved in such concentrations as listed in Table 7. Next, 20 mg of the active component (KRN7000) was weighed and stirred in 100 ml of the solvents in a heated bath to 80°C for 20 minutes in order to form a solution. After cooling with running water, the mixture was filtered through a 0.22 µm filter, and transparent colorless glass vials having a volume of 5 ml were charged with a 1 ml portion of each of a variety of solutions thus obtained and subjected to lyophilization. Lyophilization was carried out under the condition of preliminary freezing at -40°C for 2 hours and drying at -20°C for 24 hours, 10°C for 12 hours, and finally at 25°C for 5 hours to give the lyophilized product. The degree of vacuum was set at 0.1 Torr or less during drying step.
After the lyophilization step, the lyophilized composition was stored at 25°C. After storage for 1 month, the lyophilized composition was reconstituted in 1 ml of distilled water for injection, left standing for 30 minutes, and solubility was judged when the foams generated on reconstitution disappeared. The samples judged in solution were further stored, and judged again of their solubility after 4 months.
The solubility was judged by cleaning the outside of the vial and placing it beneath the white light source in a darkroom for observation with naked eye at the position of a luminous intensity of about 5,000 lux. When the sample was clear with no precipitates, it was judged that the active component was dissolved.

[3] = Cooling condition after dissolution with heating 2: turbidity after storage; conditions: lyophilized composition (Polysorbate 20 0.5%, histidine 0.75%, sucrose 5.6%) stored at 50°C for 1 week, reconstituted
Method: First, Polysorbate 20 was dissolved in distilled water in a concentration of 0.5%, histidine in a concentration of 0.75%, and sucrose in a concentration of 5.6%. Next, 800 mg of the active component (KRN7000) was weighed and stirred in 4 liters of the solvent under heating at 73°C for 30 minutes in order to form a solution. After dissolution, the mixture was divided into about 500 ml portions, cooled rapidly - gradually with stirring under the following six rates:
After cooling, the mixtures were filtered through a 0.22 µm filter, and transparent colorless glass vials having a volume of 5 ml were charged with a 1 ml portion of each of a variety of solutions thus obtained and subjected to lyophilization. Lyophilization was carried out under the condition of preliminary freezing at -50°C for 5 hours and drying at -15°C for 48 hours, 10°C for 12 hours, and finally at 25°C for 7 hours to give the lyophilized product. The degree of vacuum was set at 0.1 Torr or less during drying step.
After lyophilization, the lyophilized composition thus obtained was stored at 50°C for 1 week, and the turbidity of the reconstituted solution was measured. In this connection, the turbidity of the lyophilized composition was used which was reconstituted in 1 ml of distilled water for injection and left standing for 30 minutes, and turbidity was measured when the foams generated on reconstitution disappeared.
The turbidity was measured by the following method: various dilutions including 50-fold dilution (kaolin 2 µg/ml, turbidity 2.00), 100-fold dilution (kaolin 1 µg/ml, turbidity 1.00), and 200-fold dilution (kaolin 0.5 µg/ml, turbidity 0.50) were prepared by diluting the turbidity standard (kaolin, […]) with distilled water. A calibration curve was made by measuring the absorbance at a wave length of 660 nm with a control of distilled water and the various dilutions in a spectrophotometer (HITACHI U-3210). Next, the absorbance of the solutions was measured under the same condition as above to calculate the turbidity of the solutions.

CCCCCCCCCCCCCCCCCCCCCCCCCC(=O)N[C@@H](CO[C@H]1O[C@H](CO)[C@H](O)[C@H](O)[C@H]1O)[C@H](O)[C@H](O)CCCCCCCCCCCCCC [KRN7000, (2S,3S,4R)-1-(α-D-galactopyranosyloxy)-2-hexacosanoylamino-3,4-octadecanediol]
Judgment of solubility (by naked eye) ([1]; solvent 0.5% Cremophor, KRN7000 10 µg/ml): + (+ not dissolved (or deposited)) | Judgment of solubility (by naked eye) ([1]; solvent 0.5% HCO 50, KRN7000 10 µg/ml): + (+ not dissolved (or deposited)) | Judgment of solubility (by naked eye) ([1]; solvent 0.5% HCO 60, KRN7000 10 µg/ml): + (+ not dissolved (or deposited)) | Judgment of solubility (by naked eye) ([1]; solvent 0.5% Polyoxamer 188, KRN7000 10 µg/ml): + (+ not dissolved (or deposited)) | Judgment of solubility (by naked eye) ([1]; solvent 0.5% Polysorbate 20, KRN7000 10 µg/ml): - (- dissolved) | Judgment of solubility (by naked eye) ([1]; solvent 0.5% Polysorbate 20, KRN7000 100 µg/ml): - (- dissolved) | Judgment of solubility (by naked eye) ([1]; solvent 0.5% Polysorbate 20, KRN7000 200 µg/ml): - (- dissolved) | Judgment of solubility (by naked eye) ([1]; solvent 0.5% Polysorbate 80, KRN7000 10 µg/ml): - (- dissolved) | Judgment of solubility (by naked eye) ([1]; solvent 0.5% Polysorbate 80, KRN7000 100 µg/ml): + (+ not dissolved (or deposited)) | Judgment of solubility (by naked eye) ([1]; solvent 1N HCl, KRN7000 10 µg/ml): + (+ not dissolved (or deposited)) | Judgment of solubility (by naked eye) ([1]; solvent 1N NaOH, KRN7000 10 µg/ml): + (+ not dissolved (or deposited)) | Judgment of solubility (by naked eye) ([1]; solvent Distilled water, KRN7000 10 µg/ml): + (+ not dissolved (or deposited)) | Judgment of solubility (by naked eye) ([1]; solvent Ethanol, KRN7000 10 µg/ml): - (- dissolved) | Judgment of solubility (by naked eye) ([1]; solvent Ethanol, KRN7000 100 µg/ml): - (- dissolved) | Judgment of solubility (by naked eye) ([1]; solvent Ethanol, KRN7000 200 µg/ml): - (- dissolved) | Judgment of solubility (by naked eye) ([1]; solvent Glycerol, KRN7000 10 µg/ml): - (- dissolved) | Judgment of solubility (by naked eye) ([1]; solvent Glycerol, KRN7000 100 µg/ml): + (+ not dissolved (or deposited)) | Judgment of solubility (by naked eye) ([1]; solvent Macrogol 400, KRN7000 10 µg/ml): - (- dissolved) | Judgment of solubility (by naked eye) ([1]; solvent Macrogol 400, KRN7000 100 µg/ml): + (+ not dissolved (or deposited)) | Judgment of solubility (by naked eye) ([1]; solvent Propylene glycol, KRN7000 10 µg/ml): - (- dissolved) | Judgment of solubility (by naked eye) ([1]; solvent Propylene glycol, KRN7000 100 µg/ml): + (+ not dissolved (or deposited)) | Re-solubility after storage (by naked eye) ([2]; Mannitol 10%, 1 month): - (- dissolved) | Re-solubility after storage (by naked eye) ([2]; Mannitol 10%, 4 months): + (+ not dissolved (or deposited)) | Re-solubility after storage (by naked eye) ([2]; Sucrose 9.6%, 1 month): - (- dissolved) | Re-solubility after storage (by naked eye) ([2]; Sucrose 9.6%, 4 months): + (+ not dissolved (or deposited)) | Turbidity ([3]; cooling ① 73°C → 30°C, 4 minutes (10.75°C/min)): 2.08 | Turbidity ([3]; cooling ② 73°C → 30°C, 6 minutes (7.17°C/min)): 2.67 | Turbidity ([3]; cooling ③ 73°C → 30°C, 7 minutes (6.14°C/min)): 3.31 | Turbidity ([3]; cooling ④ 73°C → 30°C, 10 minutes (4.30°C/min)): 3.80 | Turbidity ([3]; cooling ⑤ 73°C → 30°C, 23 minutes (1.87°C/min)): 6.44 | Turbidity ([3]; cooling ⑥ 73°C → 30°C, 120 minutes (0.36°C/min)): 18.84
